Measurements taken from patent publication US11123355B2, “Antiviral benzyl-amine phosphodiamide compounds” (Merck Sharp & Dohme Corp., priority 2016, dated 2021).
Like-named read-outs stand apart in the source and are kept apart here.

System: HIV-1 (H9/IIB strain)
Test: Multiple Round HIV-1 Infection Assay (Viking Assay) in MT4-GFP cells
Type: cell-based
Details: inhibition of reproductive ratio R0
Outline: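 MT-4 cells with tat/rev-dependent GFP reporter infected overnight with virus at MOI ~0.01, then incubated in RPMI with 10% or 50% normal human serum with 10-point 3-fold dilutions (typically 8.4 μM–0.42 nM final). Green cells counted at ~48 and ~72 h to give R0; IC50 from 4-parameter fit of R0 inhibition.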

[1] = MT4-GFP cells infected with HIV-1, 10% normal human serum, read-out: Viking, IC50 (10% NHS)
[2] = MT4-GFP cells infected with HIV-1, 50% normal human serum, read-out: Viking, IC50 (50% NHS)

Compound | IC50 [1] | IC50 [2]
CCCOC(=O)C(C)(C)NP(=O)(CO[C@H](C)Cn1cnc2c(N)ncnc21)N[C@H](C)c1ccccc1OC (stereo partly drawn) [Example 20B, propyl 2-(((R)-((((R)-1-(6-amino-9H-purin-9-yl)propan-2-yl)oxy)methyl)(((R)-1-(2-methoxyphenyl)ethyl)amino)phosphoryl)a-mino)-2-methylpropanoate and propyl 2-(((S)-((((R)-1-(6-amino-9H-purin-9-yl)propan-2-yl)oxy)methyl)(((R)-1-(2-methoxyphenyl)ethyl)amino)phosphoryl)a-mino)-2-methylpropanoate] | 9.5 nM | 53 nM
CCCOC(=O)C(C)(C)NP(=O)(CO[C@H](C)Cn1cnc2c(N)ncnc21)N[C@H](C)c1ccc(OC(F)(F)F)cc1C (stereo partly drawn) [Example 21A, Propyl 2-(((R)-((((R)-1-(6-amino-9H-purin-9-yl)propan-2-yl)oxy)methyl)(((R)-1-(2-methyl-4-(trifluoromethoxy)phenyl)ethyl)amino)phos-phoryl)amino)-2-methylpropanoate and propyl 2-(((S)-((((R)-1-(6-amino-9H-purin-9-yl)propan-2-yl)oxy)methyl)(((R)-1-(2-methyl-4-(trifluoromethoxy)phenyl)ethyl)amino)phos-phoryl)amino)-2-methylpropanoate] | 150 nM | 800 nM
propyl 2-(((R)-((((R)-1-(6-amino-9H-purin- 9-yl)propan-2-yl)oxy)methyl)(((R)-2,2,2- trifluoro-1-(p- tolyl)ethyl)amino)phosphoryl)amino)-2- methylpropanoate and propyl 2-(((S)-((((R)-1-(6-amino-9H-purin- 9-yl)propan-2-yl)oxy)methyl)(((R)-2,2,2- trifluoro-1-(p- tolyl)ethyl)amino)phosphoryl)amino)-2- methylpropanoate [Example 26B] | 34 nM | 200 nM
CCCOC(=O)C(C)(C)N[P@@](=O)(CO[C@H](C)Cn1cnc2c(N)ncnc21)N[C@@H](C)c1cccc(F)c1 [Example 10B, propyl 2-(((R)-((((R)-1-(6-amino-9H-purin-9-yl)propan-2-yl)oxy)methyl)(((S)-1-(3-fluorophenyl)ethyl)amino)phosphoryl)ami-no)-2-methylpropanoate and propyl 2-(((S)-((((R)-1-(6-amino-9H-purin-9-yl)propan-2-yl)oxy)methyl)(((S)-1-(3-fluorophenyl)ethyl)amino)phosphoryl)ami-no)-2-methylpropanoate] | 99 nM | 490 nM
CCCOC(=O)C(C)(C)N[P@@](=O)(CO[C@H](C)Cn1cnc2c(N)ncnc21)N[C@@H](c1ccc(C#N)cc1)C(F)(F)F.CCCOC(=O)C(C)(C)N[P@](=O)(CO[C@H](C)Cn1cnc2c(N)ncnc21)N[C@@H](c1ccc(C#N)cc1)C(F)(F)F (mixture of isomers) [Example 24A, propyl 2-(((R)-((((R)-1-(6-amino-9H-purin-9-yl)propan-2-yl)oxy)methyl)(((S)-1-(4-cyanophenyl)-2,2,2-trifluoroethyl)amino)phosphoryl)amino)-2-methylpropanoate and propyl 2-(((S)-((((R)-1-(6-amino-9H-purin-9-yl)propan-2-yl)oxy)methyl)(((S)-1-(4-cyanophenyl)-2,2,2-trifluoroethyl)amino)phosphoryl)amino)-2-methylpropanoate] | 6.3 nM | 30 nM
